Reference: US20170280720A1, “ARGININE […] INHIBITORS AND USES THEREOF” (EPIZYME, INC., priority 2014, published 2017)

Assays:
[1] = biological target: T1, human PRMT1 (Homo sapiens, UniProt Q99873); experiment: PRMT1 biochemical assay (3H-SAM Flashplate, peptide substrate); settings: read-out: PRMT1_ IC50
T1 construct: GST-tagged PRMT1; made in house; host or cells: High Five insect cells (baculovirus, pFastBacI)
Source text: S-adenosylmethionine (SAM), S-adenosylhomocysteine (SAH), bicine, Tween20, dimethylsulfoxide (DMSO), bovine skin gelatin (BSG), and Tris(2-carboxyethyl)phosphine hydrochloride solution (TCEP) were purchased from Sigma-Aldrich at the highest level of purity possible. ^3H-SAM was purchase from American Radiolabeled Chemicals with a specific activity of 80 Ci/mmol. 384-well streptavidin Flashplates were purchased from PerkinElmer.
Peptide representative of human histone H4 residues 36-50 was synthesized with an N-terminal linker-affinity tag motif and a C-terminal amide cap by 21st Century Biochemicals. The peptide was purified by high-performance liquid chromatography (HPLC) to greater than 95% purity and confirmed by liquid chromatography mass spectrometry (LC-MS). The sequence was Biot-Ahx-[…]-amide (SEQ ID NO.: 1).
Full-length human PRMT1 isoform 1 (NM_001536.5) transcript clone was amplified from an HEK 293 cDNA library, incorporating flanking 5′ sequence encoding a FLAG tag ([…]) (SEQ ID NO.: 2) fused directly to Met 1 of PRMT1. The amplified gene was subcloned into pFastBacI (Life Technologies) modified to encode an N-terminal GST tag and a TEV cleavage sequence ([…] […] […] […] QGGNS)(SEQ ID NO.: 3) fused to Asp of the Flag tag of PRMT1.
Recombinant baculovirus were generated according to Bac-to-Bac kit instructions (Life Technologies). Protein over-expression was accomplished by infecting exponentially growing High Five insect cell culture at 1.5×10^6 cell/ml with 1:100 ratio of virus. Infections were carried out at 27° C. for 48 hours, harvested by centrifugation, and stored at −80° C. for purification.
GST-tagged PRMT1 was eluted with 50 mM Tris, 2 mM glutathione, pH 7.8, dialysed in buffer A and concentrated to 1 mg/mL. The purity of recovered protein was 73%. Reference: Wasilko, D. J. and S. E. Lee: “TIPS: titerless infected-cells preservation and scale-up” Bioprocess J., 5 (2006), pp. 29-32.
General Procedure for PRMT1 Enzyme Assays on Peptide Substrates.
The assays were all performed in a buffer consisting of 20 mM Bicine (pH=7.6), 1 mM TCEP, 0.005% BSG, and 0.002% Tween 20, prepared on the day of use. Compounds in 100% DMSO (1 ul) were spotted into a polypropylene 384-well V-bottom plates (Greiner) using a Platemate Plus outfitted with a 384-channel head (Thermo Scientific). DMSO (1 ul) was added to Columns 11, 12, 23, 24, rows A-H for the maximum signal control and 1 ul of SAH, a known product and inhibitor of PRMT1, was added to columns 11, 12, 23, 24, rows I-P for the minimum signal control. A cocktail (40 ul) containing the PRMT1 enzyme was added by Multidrop Combi (Thermo-Fisher). The compounds were allowed to incubate with PRMT1 for 30 min at room temperature, then a cocktail (10 ul) containing SAM and peptide was added to initiate the reaction (final volume=51 ul). The final concentrations of the components were as follows: PRMT1 was 0.5 nM, ^3H-SAM was 200 nM, non-radiolabeled SAM was 1.5 uM, peptide was 20 nM, SAH in the minimum signal control wells was 1 mM, and the DMSO concentration was 2%. The assays were stopped by the addition of non-radiolabeled SAM (10 ul) to a final concentration of 300 uM, which dilutes the ^3H-SAM to a level where its incorporation into the peptide substrate is no longer detectable. 50 ul of the reaction in the 384-well polypropylene plate was then transferred to a 384-well Flashplate and the biotinylated peptides were allowed to bind to the streptavidin surface for at least 1 hour before being washed once with 0.1% Tween20 in a Biotek ELx405 plate washer. The plates were then read in a PerkinElmer TopCount plate reader to measure the quantity of ^3H-labeled peptide bound to the Flashplate surface, measured as disintegrations per minute (dpm) or alternatively, referred to as counts per minute (cpm).
Where dpm=disintegrations per minute, cmpd=signal in assay well, and min and max are the respective minimum and maximum signal controls. […]

[2] = system: asymmetric di-methyl PABP1 in RKO cells; experiment: In Cell Western (ICW) for asymmetric di-methyl PABP1 and DNA content in RKO cells; format: cell-based; settings: Homo sapiens, RKO, In Cell Western
In short: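 RKO cells treated with compound for 48 h at 37 °C, then fixed, methanol-permeabilized and stained for asymmetric di-methyl PABP1 (800 nm) with DRAQ5 DNA stain (700 nm). Signal ratio normalized to DMSO and 20 μM reference-compound controls. IC50 from nine 3-fold dilutions in triplicate.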

[3] = biological target: PRMT5 (Homo sapiens, UniProt O14744); experiment: PRMT5 IC50 (Table 2; no method described); format: biochemical; settings: read-out: PRMT5_ IC50
PRMT5, sequence (O14744 whole entry, species assumed): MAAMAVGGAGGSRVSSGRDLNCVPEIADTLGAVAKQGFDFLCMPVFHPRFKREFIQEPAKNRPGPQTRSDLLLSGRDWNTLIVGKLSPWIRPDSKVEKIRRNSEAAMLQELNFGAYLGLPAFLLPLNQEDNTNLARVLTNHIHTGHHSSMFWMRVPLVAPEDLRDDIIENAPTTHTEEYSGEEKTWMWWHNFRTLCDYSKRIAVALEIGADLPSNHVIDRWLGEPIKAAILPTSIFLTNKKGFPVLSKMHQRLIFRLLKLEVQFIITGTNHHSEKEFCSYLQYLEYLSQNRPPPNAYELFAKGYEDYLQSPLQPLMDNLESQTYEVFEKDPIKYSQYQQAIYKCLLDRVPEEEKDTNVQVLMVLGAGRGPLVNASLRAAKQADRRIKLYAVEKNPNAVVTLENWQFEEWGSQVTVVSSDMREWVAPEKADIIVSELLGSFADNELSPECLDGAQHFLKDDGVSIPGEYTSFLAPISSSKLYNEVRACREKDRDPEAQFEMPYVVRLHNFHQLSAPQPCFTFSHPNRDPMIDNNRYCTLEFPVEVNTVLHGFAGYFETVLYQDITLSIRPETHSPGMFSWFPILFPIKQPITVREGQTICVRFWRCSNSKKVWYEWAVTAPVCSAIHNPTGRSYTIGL
PRMT5, sequence (Q9BQA1 whole entry partner, species assumed): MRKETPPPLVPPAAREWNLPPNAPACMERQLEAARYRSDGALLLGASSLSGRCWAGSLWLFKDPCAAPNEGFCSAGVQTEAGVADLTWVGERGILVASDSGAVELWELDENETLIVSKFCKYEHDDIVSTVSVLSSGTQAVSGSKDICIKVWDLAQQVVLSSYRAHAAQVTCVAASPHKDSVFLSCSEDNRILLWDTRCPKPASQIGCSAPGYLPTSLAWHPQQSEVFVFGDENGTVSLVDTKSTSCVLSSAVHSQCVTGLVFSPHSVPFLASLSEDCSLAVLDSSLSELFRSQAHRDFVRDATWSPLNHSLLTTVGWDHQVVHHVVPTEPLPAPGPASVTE

T1 sequence (Q99873 with tags, fused parts or gaps): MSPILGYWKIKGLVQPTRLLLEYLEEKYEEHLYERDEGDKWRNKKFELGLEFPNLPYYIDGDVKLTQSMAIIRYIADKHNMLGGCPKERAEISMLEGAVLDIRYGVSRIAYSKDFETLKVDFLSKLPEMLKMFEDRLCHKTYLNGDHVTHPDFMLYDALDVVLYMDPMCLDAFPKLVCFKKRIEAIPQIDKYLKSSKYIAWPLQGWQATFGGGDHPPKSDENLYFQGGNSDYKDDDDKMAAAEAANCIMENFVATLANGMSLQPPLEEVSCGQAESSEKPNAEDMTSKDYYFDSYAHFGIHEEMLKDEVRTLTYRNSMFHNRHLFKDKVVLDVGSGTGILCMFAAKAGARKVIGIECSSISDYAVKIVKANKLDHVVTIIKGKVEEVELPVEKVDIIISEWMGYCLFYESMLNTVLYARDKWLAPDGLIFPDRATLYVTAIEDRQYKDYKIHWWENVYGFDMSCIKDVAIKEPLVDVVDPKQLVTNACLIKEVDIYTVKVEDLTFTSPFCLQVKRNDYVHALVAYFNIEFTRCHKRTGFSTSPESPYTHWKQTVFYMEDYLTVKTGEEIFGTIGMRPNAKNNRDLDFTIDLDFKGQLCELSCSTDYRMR

Cc1[nH]c2ncc(-c3ccc(CNCCN)cc3)cc2c1C [Compound 140]
IC50 [1]: 1090 nM | IC50 [2]: 12500 nM | IC50 [3]: 128 nM

CN(C)C(=O)c1ccc(Cn2cnc3ccc(-c4ccc(CNCCN)cc4)cc32)cc1 [Compound 147]
IC50 [1]: 1330 nM | IC50 [3]: 129 nM

N#Cc1ccc(-n2cnc3ccc(-c4ccc(CNCCN)cc4)cc32)cc1 [Compound 149]
IC50 [1]: 1530 nM | IC50 [3]: 238 nM

Cc1cc2cc(-c3ccc(CNCCN)cc3)cnc2[nH]1 [Compound 152]
IC50 [1]: 1690 nM | IC50 [3]: 316 nM

Cn1cnc2ccc(-c3ccc(CNCCN)cc3)cc21 [Compound 165]
IC50 [1]: 4530 nM | IC50 [3]: 250 nM

Cc1cc(C)c(CNC(=O)c2ccnc(-c3cccc(CN(C)CCN)c3)c2)c(=O)[nH]1 [Compound 376]
IC50 [1]: 202 nM | IC50 [3]: 24400 nM

CNCCNCc1ccc(-c2cncc(C(=O)NCc3c(C)cc(C)[nH]c3=O)c2)cc1 [Compound 377]
IC50 [1]: 204 nM | IC50 [3]: 36500 nM
